Assay results reported in publication PMC11058299, “Synthesis, molecular docking evaluation for LOX and COX-2 inhibition and determination of in-vivo analgesic potentials of aurone derivatives” (Heliyon, 2024).
Where “and” joins values, the source holds several entries; their conditions need not be identical. Identical values can stand only once. Entries after “also recorded” stand apart in the source; their conditions may differ.

Columns and labels:
[1] = target: T1, COX-2 enzyme (Homo sapiens, UniProt P35354); assay: COX-2 inhibitory assay; format: biochemical; conditions: Table 2
T1 construct: purchased Sigma Aldrich
T1 sequence (P35354 18-604): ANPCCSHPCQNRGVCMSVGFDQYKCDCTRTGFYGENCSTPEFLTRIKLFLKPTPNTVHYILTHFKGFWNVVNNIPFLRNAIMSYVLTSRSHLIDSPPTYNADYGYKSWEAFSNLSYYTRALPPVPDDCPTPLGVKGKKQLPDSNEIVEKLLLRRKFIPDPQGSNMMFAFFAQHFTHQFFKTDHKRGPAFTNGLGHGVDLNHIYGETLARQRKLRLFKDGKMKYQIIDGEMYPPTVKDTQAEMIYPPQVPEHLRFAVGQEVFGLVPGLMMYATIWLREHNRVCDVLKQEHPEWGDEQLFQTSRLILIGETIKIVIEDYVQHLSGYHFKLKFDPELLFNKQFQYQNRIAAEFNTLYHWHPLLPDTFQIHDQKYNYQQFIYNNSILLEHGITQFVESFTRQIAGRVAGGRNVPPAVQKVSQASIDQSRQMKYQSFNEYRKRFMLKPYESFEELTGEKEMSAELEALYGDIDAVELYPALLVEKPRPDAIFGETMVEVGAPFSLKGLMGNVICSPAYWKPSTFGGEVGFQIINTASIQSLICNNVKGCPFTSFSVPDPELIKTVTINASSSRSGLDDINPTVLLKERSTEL
Protocol: COX-2 inhibition was measured spectrophotometrically at 550 nm after the formation of oxidized form of tetramethlenephenylenediamine (TMPD). This assay was conducted according to previously reported procedure. […] The reaction contained 10 μL COX-2 enzymes (100 μM in diluted in DMSO), 10 μL haem of 2.2 mM diluted in DMSO, tris buffers (pH. 8, 100 μl) and drug samples according to the above stated procedure. The reaction was started by the addition of freshly prepared TMPD and methanolic arachidonic acid (AA). Celecoxib is used as a reference drug in this assay. After 5 min of incubation at 25–28C, the absorbance was measured at 550 nm and inhibition was calculated.

[2] = system: acetic acid induced writhing; assay: Acetic acid induced writhing test; format: in vivo; conditions: mice; for number of writhing: mean ± SEM, control 61.22 ± 3.90
Protocol: The animals were divided into various groups I-XVI consisting of 8 experimental animals for control, sample compounds (WE-1 to WE-7) and standard. Group I: Control, Group II-XV: WE-1 to WE-7 (sample compounds) at dose of 10 mg/kg and 20 mg/kg and Group XVI: Standard. The control (Group I) was given normal saline. Group II-XV received 10 mg/kg and 20 mg/kg of test sample (WE-1 to WE-7). […] The writhing test, following a previously established method, was conducted to assess the analgesic potential of the aurone derivatives. The mice were orally administered samples compounds (WE-1 to WE-7)and standard (Diclofenac sodium 10 mg/kg) 1 h before intraperitoneal administration 10 ml/kg of 1 % acetic acid. Five minutes after the acetic acid administration, the numbers of writhing episodes were counted for 10 min, and the percentage of inhibition was subsequently calculated.

[3] = system: formalin induced paw licking; assay: Formalin induced paw licking test; format: in vivo; conditions: 20 mg/kg oral, mice
Protocol: The animals were divided into various groups I-XVI consisting of 8 experimental animals for control, sample compounds (WE-1 to WE-7) and standard. Group I: Control, Group II-XV: WE-1 to WE-7 (sample compounds) at dose of 10 mg/kg and 20 mg/kg and Group XVI: Standard. The control (Group I) was given normal saline. Group II-XV received 10 mg/kg and 20 mg/kg of test sample (WE-1 to WE-7). […] The acute peripheral and centrally mediated analgesic activity of aurone derivatives was evaluated using the formalin-induced pain method, as described. Samples compounds (WE-1 to WE-7) and a standard (Indomethacin 10 mg) were orally administered 30 min prior to 20 μl of 1 % formalin injection (prepared in 0.9 % saline) in right hind paw of the mice and immediately placed in a clear box to observe the animal's reaction. Paw licking or biting within 0–5 min indicated Phase 1, while animal reactions observed between 15 and 30 min indicated Phase 2. The number of paw licking or biting events was compared to the control group, and the percentage of inhibition was calculated.

[4] = target: T2, LOX enzyme (Glycine max, UniProt P08170); assay: LOX enzyme kinetic assay (Lineweaver-Burk); format: biochemical; conditions: Lineweaver-Burk plot
T2 construct: purchased Cayman Chemicals
T2 sequence (P08170 1-839): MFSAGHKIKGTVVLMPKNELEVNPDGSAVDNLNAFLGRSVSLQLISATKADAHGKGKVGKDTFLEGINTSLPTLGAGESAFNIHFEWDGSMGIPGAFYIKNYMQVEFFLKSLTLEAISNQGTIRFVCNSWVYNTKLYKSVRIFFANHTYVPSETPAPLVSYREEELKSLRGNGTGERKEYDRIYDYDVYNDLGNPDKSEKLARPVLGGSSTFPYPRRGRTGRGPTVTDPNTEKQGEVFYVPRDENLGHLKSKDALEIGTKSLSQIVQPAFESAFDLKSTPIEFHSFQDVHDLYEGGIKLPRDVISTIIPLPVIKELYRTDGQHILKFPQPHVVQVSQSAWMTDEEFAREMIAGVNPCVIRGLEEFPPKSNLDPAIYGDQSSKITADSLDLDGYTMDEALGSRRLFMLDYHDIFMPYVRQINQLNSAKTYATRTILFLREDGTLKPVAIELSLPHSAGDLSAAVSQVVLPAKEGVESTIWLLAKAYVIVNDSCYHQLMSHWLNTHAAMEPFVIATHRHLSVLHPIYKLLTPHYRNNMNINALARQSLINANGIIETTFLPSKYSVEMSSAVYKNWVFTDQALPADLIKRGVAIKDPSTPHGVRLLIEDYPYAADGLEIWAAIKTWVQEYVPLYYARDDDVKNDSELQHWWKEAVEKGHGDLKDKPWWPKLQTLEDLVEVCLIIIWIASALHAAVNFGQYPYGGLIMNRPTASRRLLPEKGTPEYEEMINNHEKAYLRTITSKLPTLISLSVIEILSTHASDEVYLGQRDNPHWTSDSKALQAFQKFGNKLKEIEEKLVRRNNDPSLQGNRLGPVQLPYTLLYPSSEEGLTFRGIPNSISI
Protocol: The type of enzyme inhibition by compound (WE-4) was determined using the continuous spectrophotometric rate determination method. Various concentrations of the substrate (AA) were prepared in a Tween-20 solution within a 200 mM borate buffer at pH 9.0. A fixed concentration of LOX enzyme (10,000 units/ml) was prepared in a separate 200 mM borate buffer at pH 9.0. The enzyme kinetics were analyzed by employing the Lineweaver and Burk method while examining the substrate at different concentrations in the presence or absence of compound (WE-4).

Compound: COc1ccc(C=C2Oc3ccccc3C2=O)cc1OC [WE-4, 2-(3,4-dimethoxybenzylidene)benzofuran-3(2H)-one]
- IC50 [1]: 0.22 µM
- percent analgesic effect (inhibition of writhing) ([2]; 10 mg/kg oral): 71.30%
- number of writhing ([2]; 10 mg/kg oral): 17.57 ± 1.94
- percent analgesic effect (inhibition of writhing) ([2]; 20 mg/kg oral): 77.60%
- number of writhing ([2]; 20 mg/kg oral): 13.71 ± 1.77
- percentage inhibition of paw licking, Phase I ([3]; initial phase): 49.97%
- percentage inhibition of paw licking, Phase II ([3]; late phase): 70.93% and 70.96%
- number of formalin-induced paw licking, Phase II ([3]; late phase, control 55.81 ± 3.29): 16.22 ± 1.86
- type of enzyme inhibition [4]: non-competitive inhibitor; also recorded: non-competitive inhibition
- melting point: 175 to 178 °C
